Tests used:
MDA-MB-453 [1] = experiment: drug sensitivity score (DSS), in combination with BLU9931 (DSS (weighted AUC score)); higher = more sensitive (stronger viability decrease); extreme values may be limits of the assay; conditions: BLU9931 100 nM; 72 h
Procedure, shortened: (§1)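 Cells of the MDA-MB-453 line (2000 per well) were added in medium, with or without 100 nM final FGFR4 inhibitor, to 384-well plates predispensed with FIMM Oncology set compounds at five 10-fold dilutions covering a 10,000-fold range. After 72 h at 37 °C, 5% CO2, CellTiterGlo 2.0 read cellular ATP. Percent viability came from per-plate normalisation to control wells, and the drug sensitivity score was defined as a weighted area under a four-parameter logistic fit.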

MDA-MB-453 [2] = experiment: drug sensitivity score (DSS), single agent (DSS (weighted AUC score)); higher = more sensitive (stronger viability decrease); extreme values may be limits of the assay; conditions: BLU9931 0 nM; 72 h
Procedure, shortened: as §1

Row | SMILES | drug sensitivity score (MDA-MB-453 [1]) | drug sensitivity score (MDA-MB-453 [2])
1 | CC(C)(C)C[C@@H]1N[C@@H](C(=O)N[C@H]2CC[C@H](O)CC2)[C@H](c2cccc(Cl)c2F)[C@]12C(=O)Nc1cc(Cl)ccc12 | 0 | 0.9
2 | CC(C)(C)c1cc(NC(=O)Nc2ccc(Oc3ccnc4[nH]c(=O)cnc34)cc2F)n(-c2ccccc2)n1 | 6.7 | 7.9
3 | CC(C)Oc1ccc(C(=O)N[C@H](CNC(=O)CN(C)C)Cc2ccc(-c3cn4cccc([C@H](C)O)c4n3)cc2)cc1Cl | 8.8 | 14.3
4 | CCOc1ccn(-c2ccc(F)cc2)c(=O)c1C(=O)Nc1ccc(Oc2ccnc(N)c2Cl)c(F)c1 | 0 | 0
5 | CC[C@@H]1[C@H](F)C(=O)N[C@@H]1COc1nccc2cc(C(N)=O)c(OC)cc12 | 0.4 | 2.9
6 | CCc1cncnc1N1CCN(Cc2nc3ccc(C(F)(F)F)cc3[nH]2)CC1 | 0.6 | 0.6
7 | CCn1c(-c2nonc2N)nc2c(C#CC(C)(C)O)ncc(OC[C@H]3CCCNC3)c21 | 15 | 13
8 | CCn1c(-c2nonc2N)nc2cnc(Oc3cccc(NC(=O)c4ccc(OCCN5CCOCC5)cc4)c3)cc21 | 3.8 | 3.9
9 | CCn1c(C(=O)N(C2CC2)C2CC2)cc2c3c(ncn3C)c(Nc3cc(C)n(C)n3)nc21 | 0 | 0
10 | CCn1cc(-c2ccnc3[nH]c(-c4cccc(CN(C)C)c4)cc23)c(-c2ccc(NC(=O)N(C)C)cc2)n1 | 1 | 1
11 | CN(C)CC#Cc1ccc(OCCCc2sc(N3CCc4cccc(C(=O)Nc5nc6ccccc6s5)c4C3)nc2C(=O)O)c(F)c1 | 12 | 6.6
12 | CN(c1ncccc1CNc1nc(Nc2ccc3c(c2)CC(=O)N3)ncc1C(F)(F)F)S(C)(=O)=O | 3.9 | 3.9
13 | CN1CCN(C2CCC(n3cc(-c4ccc(Oc5ccccc5)cc4)c4c(N)ncnc43)CC2)CC1 (configuration not stated) | 9.3 | 8.4
14 | CNC(=O)c1ccc(C)c(-n2c(C)cc(OCc3ccc(F)cc3F)c(Br)c2=O)c1 | 0 | 0.1
15 | CNC(=O)c1ccccc1Nc1nc(Nc2ccc3c(c2OC)CCC[C@H](N2CCN(CCO)CC2)C3)ncc1Cl | 5.6 | 6.7
16 | CNS(=O)(=O)Nc1nccc(Cc2c(C)c3ccc(Oc4ncccn4)cc3oc2=O)c1F | 0.2 | 0.5
17 | CNc1nc(-c2ccc3c(N)n[nH]c3c2)cc(N2C[C@@H](C(=O)NC3CCCCC3)CC[C@H]2C)n1 | 3.9 | 4.8
18 | CNc1ncc2cc(-c3cc(NC(=O)NCCC(C)(C)C)c(F)cc3C)c(C)nc2n1 | 3.8 | 6.3
19 | CONC(=O)c1ccccc1Nc1cc(Nc2cc(C)nn2C(C)C)ncc1Cl | 0.5 | 0.8
20 | CO[C@@H](C)Cn1c(=O)n(C)c2cnc3ccc(-c4cncc(C(C)(C)O)c4)cc3c21 | 15.3 | 15.3
21 | COc1cc2ncnc(Oc3cccc(NC(=O)Nc4cc(C(C)(C)C(F)(F)F)on4)c3)c2cc1OC | 3.2 | 5.1

Row | SMILES | drug sensitivity score (MDA-MB-453 [1]) | drug sensitivity score (MDA-MB-453 [2])
22 | COc1ccc(Cn2ccc3ccc(C(=O)NO)cc32)cc1 | 2.3 | 0.8
23 | COc1ccc2[nH]cc(/C=C3\C(=O)Nc4ccc(NC(=O)CCN5CCCCC5)cc43)c2c1 | 4.8 | 6.1
24 | C[C@@H](Oc1cc(-n2cnc3ccc(CN4CCN(C)CC4)cc32)sc1C(N)=O)c1ccccc1C(F)(F)F | 6.3 | 11.5
25 | C[C@@H](Oc1ccc2[nH]nc(/C=C/c3cnn(CCO)c3)c2c1)c1c(Cl)cncc1Cl | 1.8 | 9
26 | C[C@@H]1CN(CC(=O)Nc2ccc3c(c2)Cc2cccc(-c4cc(=O)cc(N5CCOCC5)o4)c2S3)C[C@H](C)O1 | 3.4 | 3.1
27 | C[C@@]1(C(=O)Nc2ccc(F)nc2)CCCN1c1nc(Nc2cc(C3CC3)n[nH]2)c2cccn2n1 | 0 | 0
28 | C[C@H]1C[C@@H](n2c(Nc3ccc(OC(F)(F)F)cc3)nc3cc(CCC(=O)O)ccc32)CC(C)(C)C1 | 0 | 0
29 | C[C@H]1Oc2cc(cnc2N)-c2c(nn(C)c2C#N)CN(C)C(=O)c2ccc(F)cc21 | 2.1 | 0
30 | Cc1c(-c2c(-c3ccc(F)o3)sc3ncnc(O[C@H](Cc4ccccc4OCc4ccnn4CC(F)(F)F)C(=O)O)c23)ccc(OCCN2CCN(C)CC2)c1Cl | 3.3 | 4.2
31 | Cc1c(-c2ccc(N3CCc4cccc(C(=O)Nc5nc6ccccc6s5)c4C3)nc2C(=O)O)cnn1CC12CC3CC(CC(C3)C1)C2 | 5.4 | 1.4
32 | Cc1c(Cn2c(C)nc3c(C(=O)O)cc(N4CCOCC4)cc32)cccc1C(F)(F)F | 0 | 0
33 | Cc1ccc(C(=O)N(CCCN)[C@@H](c2oc3cc(Cl)ccc3c(=O)c2Cc2ccccc2)C(C)C)cc1 | 1.8 | 5.3
34 | Cc1cccc(CC(=O)N2CCc3c2ccc(-c2cn(C)c4ncnc(N)c24)c3F)n1 | 0 | 2.2
35 | Cc1nc(Nc2n[nH]c3c2CN(C(=O)N[C@H](CN(C)C)c2ccccc2)C3(C)C)c2sccc2n1 | 8.7 | 11.4
36 | Cc1ncc(Cl)cc1NCc1ccc(C(=O)N[C@@H](CC2CCCC2)C(=O)NC2CC2)s1 | 0.5 | 0
37 | Cc1nn(C)c(COc2ccc(N3CCN(S(=O)(=O)N(C)C)CC3)cc2)c1-c1cccc2c(CCCOc3cccc4ccccc34)c(C(=O)O)n(CCN3CCOCC3)c12 | 5.8 | 5.8
38 | Cn1cc(-c2ccc(F)c(C(F)(F)F)c2)nc1C1CCN(c2ncnc3[nH]ncc23)CC1 | 3.9 | 1.8
39 | Cn1cc(C2=Nc3cc(NC(=O)C(N)C4CCCCC4)cc4c3C2=CNNC4=O)cn1 (configuration not stated) | 9.9 | 14.4
40 | N#Cc1ccc(COC[C@H]2O[C@@H](n3c(NCc4ccc(Cl)c(Cl)c4)nc4c(N)ncnc43)[C@H](O)[C@@H]2O)cc1 | 4.2 | 4.9
41 | NCC(=O)Nc1ccc(-n2nc(C(F)(F)F)cc2-c2ccc3c(ccc4ccccc43)c2)cc1 | 0 | 2.1
42 | NC[C@@](O)(c1ccc(Cl)cc1)c1ccc(-c2cn[nH]c2)cc1 | 2.4 | 1.3

Row | SMILES | drug sensitivity score (MDA-MB-453 [1]) | drug sensitivity score (MDA-MB-453 [2])
43 | Nc1nccc(-c2c(-c3ccc(F)cc3)ncn2C2CCCCC2)n1 | 0.6 | 1.1
44 | Nc1ncnc2c1c(COc1cccc(Cl)c1)nn2C1CCOCC1 | 0.9 | 0.9
45 | O=C(NC[C@H](O)CN1CCc2ccccc2C1)c1cc(NC2COC2)ncn1 | 4.3 | 3.9
46 | O=C(NCc1ccncc1)C12CC3CC(C1)CC(c1ccc(Cl)cc1)(C3)C2 | 0 | 1.1
47 | O=C(NOC[C@H](O)CO)c1ccc(F)c(F)c1Nc1ccc(I)cc1F | 1.1 | 1.2
48 | O=C(Nc1ccc2[nH]nc(-c3ccncc3)c2c1)[C@@H]1CCN(CC(=O)N2CCN(c3ccc(-c4ncccn4)cc3)CC2)C1 | 0 | 3.4
49 | O=C(O)c1ccc(-c2c[nH]c3ncc(-c4ccccc4)cc23)cc1C1CCCC1 | 0.5 | 1.4
50 | O=C(O)c1ccc(CN2CCC(CN[C@@H]3C[C@H]3c3ccccc3)CC2)cc1 | 0 | 0.3
51 | O=C1Cc2cc(C(=O)NC3C[C@H]4CC[C@@H](C3)N4S(=O)(=O)CC3CCN(CCCC(F)(F)F)CC3)c(Cl)cc2N1 (some centres not stated) | 0 | 0
52 | O=c1[nH]c(C2CCCN2)nc2c1oc1ccc(Cl)cc12 (configuration not stated) | 0.5 | 0
53 | COc1ccc(C[C@H](NC(=O)[C@H](C)NC(=O)CN2CCOCC2)C(=O)N[C@@H](Cc2ccccc2)C(=O)C2(C)CO2)cc1 (stereo in doubt) [ONX-0914] | 13.8 | 14.7
54 | Cn1cc(C[C@@H](N)C(=O)O)c2ccccc21 [1-methyl-D-tryptophan] | 0 | 0.2
55 | CC/C(=C(\c1ccc(O)cc1)c1ccc(OCCN(C)C)cc1)c1ccccc1 [4-hydroxytamoxifen] | 4.5 | 4.8
56 | Nc1ncnc2c1nc(N)n2[C@@H]1O[C@H](CO)[C@@H](O)[C@H]1O [8-amino-adenosine] | 25 | 22.4
57 | Nc1ncnc2c1nc(Cl)n2[C@@H]1O[C@H](CO)[C@@H](O)[C@H]1O [8-chloro-adenosine] | 9.4 | 8.1
58 | COc1cc2c(cc1OCCCN1CCCC1)N=C(N)C21CCC1 [A-366] | 0 | 0
59 | COc1ccc(S(=O)(=O)Nc2cccnc2Nc2ccc(O)cc2)cc1 [ABT-751] | 7.9 | 7.4
60 | C[C@H](Nc1ncnc2[nH]cnc12)c1cc2ccc(F)cc2nc1-c1ccccn1 [AMG319] | 0.3 | 1.1
61 | CC(C)[C@@H](CS(=O)(=O)C(C)C)N1C(=O)[C@@](C)(CC(=O)O)C[C@H](c2cccc(Cl)c2)[C@H]1c1ccc(Cl)cc1 [AMG-232] | 0 | 0.2
